Test results reported in article PMC12010006, “Subnanomolar MAS-related G protein-coupled receptor-X2/B2 antagonists with efficacy in human mast cells and disease models” (Signal Transduction and Targeted Therapy, 2025).

Target: T1, MRGPRX2 (Homo sapiens, UniProt Q96LB1)
T1 sequence (Q96LB1 1-330): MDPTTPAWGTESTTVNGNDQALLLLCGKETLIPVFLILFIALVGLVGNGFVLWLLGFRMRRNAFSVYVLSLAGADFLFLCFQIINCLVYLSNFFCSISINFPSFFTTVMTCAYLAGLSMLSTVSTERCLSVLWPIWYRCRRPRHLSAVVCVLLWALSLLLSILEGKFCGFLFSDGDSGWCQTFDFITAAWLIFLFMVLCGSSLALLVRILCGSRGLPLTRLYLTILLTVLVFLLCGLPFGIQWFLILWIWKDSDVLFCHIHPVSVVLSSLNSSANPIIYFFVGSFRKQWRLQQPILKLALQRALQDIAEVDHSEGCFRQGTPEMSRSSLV
Test: Degranulation (β-hexosaminidase release), RBL-MRGPRX2 cells
Format: cell-based
Experimental: Having a competitive MRGPRX2 antagonist with subnanomolar potency in hand, we next studied its effects on MCs. Activation of MRGPRX2, which is highly expressed in skin MCs, results in degranulation and histamine release.[19] We therefore investigated whether PSB-172656 inhibits MRGPRX2-mediated MC activation utilizing the rat MC line RBL-2H3 recombinantly expressing the human MRGPRX2 (designated RBL-MRGPRX2). These cells were treated with two different concentrations of PSB-172656 (100 nM and 300 nM), and then exposed to different MRGPRX2 agonists, namely C48/80 (0.3 µg/mL), SP (0.3 µM), and PAMP-12 (0.1 µM), respectively. Degranulation of the cells was assayed by β-hexosaminidase release measurements.
Fig. 5 PSB-172656 blocks MRGPRX2-induced mast cell degranulation without affecting IgE-mediated responses. a RBL-MRGPRX2 cells were incubated with control (vehicle) or preincubated with PSB-172656 (100 or 300 nM), followed by stimulation with C48/80 (0.3 µg/mL), substance P (SP; 0.3 µM), or PAMP-12 (0.1 µM), and β-hexosaminidase release was measured. RBL-MRGPRX2 cells were sensitized with monoclonal anti-dinitrophenyl antibody (DNP-specific IgE), and degranulation induced by 2,4-dinitrophenylated bovine serum albumin (DNP-BSA, 10 and 30 ng/mL) was measured without or after preincubation with PSB-172656 (0.1 and 0.3 µM). […] Data are expressed as means ± SEM of 3 biological replicates. Statistical significance was determined by two-way ANOVA (Tukey’s multiple comparisons)
Rat basophilic leukemia (RBL-2H3) cells that stably expressed the human MGPRGX2 (RBL-MRGPRX2) were grown in Dulbecco’s modified Eagle’s medium (DMEM) supplemented with 10% FBS, L-glutamine (2 mM), penicillin (100 IU/mL), and streptomycin (100 µg/mL).[42]
Degranulation as determined by β-hexosaminidase release was performed as described previously.[66],[67] Briefly, RBL-MRGPRX2 cells (5 × 10^4 cells/well) were seeded into 96-well cell culture plates. After 16 h, cells were treated with PSB-172656 or solvent for 5 min in HEPES buffer containing 0.1% bovine serum albumin (BSA), and then activated with MRGPRX2 agonist (C48/80, SP, PAMP-12, or LL-37) for 30 min at 37 °C. For measurement of total β-hexosaminidase content, unstimulated cells were lyzed by Triton X-100 (0.1%). Aliquots (20 µL) of supernatant were incubated with 20 µL of 1 mM 4-nitrophenyl-N-acetyl-β-D-glucosaminide (PNAG) for 1 h at 37°C. Finally, the reaction was stopped by adding 250 µL of 0.1 M Na2CO3/0.1 M NaHCO3 buffer, and absorbance was determined with a Versamax microplate spectrophotometer (Molecular Devices, San José, CA) at a wavelength of 405 nm. The degranulation was quantitated as a percentage of β-hexosaminidase release by dividing the β-hexosaminidase in the sample by the total enzyme content. To test the antigen response, RBL-MRGPRX2 (5 × 10^4 cells/well) cells were sensitized with DNP-specific mouse IgE (SPE-7; 1 µg/mL). After 16 h, cells were preincubated in the absence or presence of respective concentrations of PSB-172656 for 5 min, followed by the stimulation of antigen (DNP-BSA, 10 and 30 ng/mL), and the degranulation was measured as described above. For degranulation in LAD2 cells, 1 × 10^4 cells/well were seeded into 96-well cell culture plates, incubated with or without PSB-172656 for 5 min, then with the MRGPRX2 agonist SP for 30 min, and degranulation was measured similarly.

- effect on MC degranulation in response to C48/80 (100 nM and 300 nM, C48/80 0.3 µg/mL): completely abolished
- effect on MC degranulation in response to PAMP-12 (100 nM and 300 nM, PAMP-12 0.1 µM): substantially inhibited
- effect on MC degranulation in response to SP (100 nM and 300 nM, SP 0.3 µM): completely abolished
- IC50 (versus C48/80 (0.3 µg/mL)): 3.79 nM
- IC50 (versus LL-37 (3 µM)): 8.12 nM
- IC50 (versus PAMP-12 (0.1 µM)): 11.7 nM
- IC50 (versus SP (0.3 µM)): 15.5 nM
Structure (SMILES): CCc1c(C(C)C)[nH]c2nc3cc(F)c(F)cc3n2c1=O [Compound 24, 3-ethyl-7,8-difluoro-2-isopropylbenzo[4,5]imidazo [1,2-a] pyrimidin-4(1H)-one]
